Measured values taken from paper PMC7048932, “Examining sterically demanding lysine analogs for histone lysine methyltransferase catalysis” (Scientific Reports, 2020).

Legend:
GLP [1] = target: T1, GLP (Homo sapiens, UniProt Q9H9B1); test: MALDI-TOF MS methylation assay of H3K9 peptides with GLP; type: biochemical; conditions: peptide 100 µM, 37 °C
T1 construct: His6 (N); made in house; host or cells: E. coli BL21 (DE3)pLysS-rosetta
T1 sequence (Q9H9B1 1-1298): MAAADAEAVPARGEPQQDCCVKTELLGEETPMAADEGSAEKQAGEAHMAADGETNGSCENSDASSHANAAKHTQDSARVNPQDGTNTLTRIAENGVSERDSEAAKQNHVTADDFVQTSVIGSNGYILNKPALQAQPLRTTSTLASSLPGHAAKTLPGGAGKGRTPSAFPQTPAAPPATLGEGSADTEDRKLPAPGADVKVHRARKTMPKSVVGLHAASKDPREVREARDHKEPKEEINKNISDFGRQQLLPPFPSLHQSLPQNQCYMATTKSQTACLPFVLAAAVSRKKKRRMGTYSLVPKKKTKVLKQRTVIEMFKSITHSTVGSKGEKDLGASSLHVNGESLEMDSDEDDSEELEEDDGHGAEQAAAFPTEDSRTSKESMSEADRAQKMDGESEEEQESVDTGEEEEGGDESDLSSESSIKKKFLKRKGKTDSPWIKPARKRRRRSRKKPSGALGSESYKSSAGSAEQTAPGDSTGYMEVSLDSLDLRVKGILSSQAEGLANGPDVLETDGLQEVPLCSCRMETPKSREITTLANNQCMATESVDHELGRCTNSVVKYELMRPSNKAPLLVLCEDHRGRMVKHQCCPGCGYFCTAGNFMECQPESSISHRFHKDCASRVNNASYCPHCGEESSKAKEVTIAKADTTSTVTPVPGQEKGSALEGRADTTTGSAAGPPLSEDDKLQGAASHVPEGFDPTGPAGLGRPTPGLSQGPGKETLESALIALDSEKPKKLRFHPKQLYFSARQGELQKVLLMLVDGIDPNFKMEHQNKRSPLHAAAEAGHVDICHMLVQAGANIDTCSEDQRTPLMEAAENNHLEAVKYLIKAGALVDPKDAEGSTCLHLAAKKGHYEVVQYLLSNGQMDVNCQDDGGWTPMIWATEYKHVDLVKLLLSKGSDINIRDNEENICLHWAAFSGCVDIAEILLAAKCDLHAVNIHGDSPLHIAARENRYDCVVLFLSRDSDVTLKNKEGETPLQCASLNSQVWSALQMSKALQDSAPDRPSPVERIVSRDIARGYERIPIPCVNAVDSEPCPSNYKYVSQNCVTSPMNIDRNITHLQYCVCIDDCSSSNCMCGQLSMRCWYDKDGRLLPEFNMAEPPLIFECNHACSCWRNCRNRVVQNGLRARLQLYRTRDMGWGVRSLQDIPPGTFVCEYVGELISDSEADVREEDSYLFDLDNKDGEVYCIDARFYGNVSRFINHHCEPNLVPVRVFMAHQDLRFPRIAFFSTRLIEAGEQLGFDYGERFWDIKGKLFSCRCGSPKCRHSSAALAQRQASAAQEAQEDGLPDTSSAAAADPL
Procedure: MALDI-MS methyltransferases activity experiments were performed using a Bruker instrument in the reflectron positive mode. For regular methyltransferase standard conditions experiment which carried out in 30 µL total volume, the mixture contains peptide (100 µM), SAM (200 µM), SETD8 or SETD7 (2 µM), in assay buffer 50 mM Tris at optimal pH 8.0. In case of G9a and GLP, similar conditions were used, except (500 µM) of SAM was added to the reaction mixture. […] A 5 µL aliquot of the solution was mixed with 5 µL of MeOH, after which 5 µL of this mixture was mixed with 5 µL of α-cyano-4-hydroxycinamic acid matrix (CHCA, 5 mg/mL in 125:125 µL acetonitrile/water). The spots were placed on a stainless steel MALDI plate (MS 96 target ground steel BC of Bruker, Germany). The mass corresponding to one monomethylation observed as +14 Da, dimethylation observed as +28 Da and trimethylation observed as +42 Da. The enzymatic activity was determined by taking the peak areas of each methylation state, including all isotopes and adducts, and was annotated using FlexAnalysis software (Bruker Daltonics, Germany). […] Methylated peptide substrates were repeated five times and the unmethylated substrates were triplicated. Sequences of the examined peptides are given in (Supplementary Table 1).

GLP [2] = target: T1, GLP; test: NMR assay of GLP-catalyzed methylation of H3K9 peptides; type: biochemical; conditions: peptide 400 µM, GLP 8 µM, SAM 2 mM, 50 mM Tris-d11.HCl pD 8.0, 1 h, 37 °C
[3] = GLP 10 µM, SAM 1 mM, 5 h, MALDI-MS

ARTKQTAR(Kba9)STGGKA [H3Kba9]
GLP-catalyzed methylation, result in words (GLP [1]; GLP 2 µM, SAM 500 µM, 1 h, MALDI-TOF MS): traces detected | GLP-catalyzed methylation, result in words, increased GLP/SAM (GLP [1]; [3]): monomethylation | GLP-catalyzed monomethylation, increased GLP/SAM (GLP [1]; [3]): 55% | GLP-catalyzed methylation by 1H NMR / 1H-13C HSQC, result in words (GLP [2]): not methylated
